Source: article PMC3266904, “Biochemical Discrimination between Selenium and Sulfur 2: Mechanistic Investigation of the Selenium Specificity of Human Selenocysteine Lyase” (PLoS ONE, 2012)

Molecular target: T1, human selenocysteine lyase (hSCL) (Homo sapiens, UniProt Q96I15)
T1 construct: gene SCLY
T1 sequence (Q96I15 8-445): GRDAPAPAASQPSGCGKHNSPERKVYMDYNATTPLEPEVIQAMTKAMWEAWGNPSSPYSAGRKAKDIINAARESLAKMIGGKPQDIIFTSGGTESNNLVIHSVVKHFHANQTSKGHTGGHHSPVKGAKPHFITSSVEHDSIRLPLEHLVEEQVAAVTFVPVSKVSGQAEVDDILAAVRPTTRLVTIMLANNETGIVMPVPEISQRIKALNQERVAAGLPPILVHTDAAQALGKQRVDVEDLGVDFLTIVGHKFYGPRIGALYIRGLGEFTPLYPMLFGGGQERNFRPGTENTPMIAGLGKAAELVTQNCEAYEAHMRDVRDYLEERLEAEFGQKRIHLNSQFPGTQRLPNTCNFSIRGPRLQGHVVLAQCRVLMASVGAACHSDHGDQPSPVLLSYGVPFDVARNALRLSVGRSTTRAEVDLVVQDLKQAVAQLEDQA
Test: UV/Vis spectrum of as-isolated protein
Format: binding
Conditions: 120 mM Tris pH 8.5, 2 mM TCEP; covalent internal aldimine

## Cc1ncc(COP(=O)(O)O)c(C=O)c1O [PLP]
  UV/Vis spectrum of as-isolated protein: the Shiff base linking the PLP cofactor to the protein exists mainly in the protonated
